Test results: the METLIN SMRT retention time set (Domingo-Almenara et al. 2019)

Test: gradient 5% acetonitrile 3 min, to 50% in 2 min, to 85% in 15 min, held 3 min, 100 µL/min
Details: column: Zorbax Extend-C18 2.1 x 50 mm; eluents: water / acetonitrile, 0.1% formic acid
Procedure, shortened: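 Retention times come from adduct peaks that were picked computationally and then checked by hand. The standards, pure and pooled in mixtures of ~100 molecules, were run on a Zorbax Extend-C18 column (2.1 × 50 mm, 1.8 μm) at 100 μL/min with water and acetonitrile, each with 0.1% formic acid. Detection was by quadrupole time-of-flight mass spectrometry in positive and negative ionization mode, with a dead volume of 40 μL and a dwell volume of 900 μL.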

Compound | RP-LC retention time [s]
CCn1cc(C(=O)N2C[C@@H](COCC3CC3)[C@H](c3nc(C)no3)C2)cn1 | 714
Nc1n[nH]c(-c2ccc(Cl)cc2)n1 | 605
Cc1nn2c(S(=O)(=O)N3CCOCC3)c(C)nc2s1 | 656
Cn1cc(C2=CCN(S(=O)(=O)c3ccc(F)c(Cl)c3)CC2)c2cccnc21 | 1050
CN1CCC2(CCN3CCc4c(oc5ccccc45)C3C2)N(C)C1=O (stereo not given) | 615
CC(=O)c1c(N(C)CCO)nc2ccc(Cl)cc2c1-c1ccccc1 | 834
O=S(=O)(c1ccc2c(c1)OCCO2)N(CCc1cccs1)Cc1cccnc1 | 655
COc1ccc(NS(=O)(=O)c2cc(-c3[nH]ncc3C(=O)N(C)C)oc2C)cc1F | 672
CC(C)N1C(=O)c2cccnc2Sc2cc(NC(=O)C3CC3)ccc21 | 733
O=c1n(Cc2ccc(F)cc2Cl)nc2ccc(S(=O)(=O)N3CCOCC3)cn12 | 863
CCCNC(=O)N1CCC(N2CCN(Cc3ccccc3)C(=O)C2=O)CC1 | 653
CCn1c(=O)c2cc(C(=O)NCCc3ccc(OC)c(OC)c3)nn2c2ccccc21 | 910
O=C(O)c1cc(-c2ccco2)n(C2CCS(=O)(=O)C2)n1 (stereo not given) | 604
O=C(N1CCOCC1)N1CCN(S(=O)(=O)c2cccc([N+](=O)[O-])c2)CC1 | 668
O=C(O)c1nnn(-c2cccc(Cl)c2)c1-c1ccncc1 | 657
O=C(Cn1nc2n(c1=O)CCCC2)N1CCN(c2ccccc2F)CC1 | 679
CS(=O)(=O)N1CCC(C(=O)Nc2sccc2C#N)CC1 | 662
Cc1cccc(CN2C(=O)CCc3c(C)nc(-c4ccncc4)nc32)c1 | 764
CC(C)n1c(CCNC(=O)c2ccc(C#N)cc2)nc2cccnc21 | 639
O=C(c1nnn(-c2ccccc2Cl)c1-c1ccncc1)N1CCN(c2ccccn2)CC1 | 973
CC12CC(NC(=O)N1c1cccc(C(=O)NCc3cccnc3)c1)c1cc(Br)ccc1O2 (stereo not given) | 642
CCCn1ccc2sc(C)c(C(=O)NCc3cccc(Cl)c3)c2c1=O | 990
CCN1C(=O)C2CC3(CCN(Cc4cn(C)c5ccc(OC)cc45)CC3)CN2C1=O (stereo not given) | 584

Compound | RP-LC retention time [s]
CCCCn1c(=O)c2ccccc2n(Cc2nc(-c3ccccc3OC)no2)c1=O | 1050
CCc1ccc(C(=O)N2CCc3[nH]nc(C(=O)N(C)C)c3C2)cc1 | 659
CCc1ccc(Oc2cc(N3CCC(C(=O)NCCC(C)C)CC3)ncn2)cc1 | 1040
CCn1cc(CCN2CCN(S(=O)(=O)c3cccc(C#N)c3)CC2)c2cccnc21 | 635
CN1C(=O)c2cccnc2Sc2cc(NC(=O)c3cccs3)ccc21 | 745
O=S(=O)(c1cccn2c(SCc3ccc(F)cc3Cl)nnc12)N1CCCCC1 | 879
O=C1NCCCn2cc(S(=O)(=O)Nc3ccc(F)cc3F)cc21 | 641
O=C(Nc1nc2ccccc2n1CCN1CCOCC1)c1cccc([N+](=O)[O-])c1 | 581
CCOc1cc(C(=O)Nc2ccc(-c3cn4cccnc4n3)cc2)cc(OCC)c1OCC | 759
CC1=C(c2ccc(Cl)cc2)S(=O)(=O)N=C1N1CCCN(C(=O)c2ccccc2)CC1 | 862
O=C1CCCCC(CNC(=O)c2cnccn2)N1 (stereo not given) | 577
Cc1ccc(CNC(=O)N2CC=C(c3cn(C(C)C)c4ncccc34)CC2)cc1 | 958
O=C(O)CCC1CCCN(S(=O)(=O)c2ccc(F)cc2)C1 (stereo not given) | 782
CC(C)n1cnc(S(=O)(=O)N2CCCC(C(=O)N3CCN(c4ccccc4)CC3)C2)c1 (stereo not given) | 766
CCCCN(CC)c1nc2cc(C(=O)OC)ccc2c(=O)n1-c1ccccc1 | 1250
COc1c(C(=O)NCc2ccc3c(c2)OCO3)sc2ccc(Cl)cc12 | 1070
Cc1ccccc1CC(=O)Nc1nnc(SCc2nnc(-c3ccccc3)o2)s1 | 908
O=C(NCc1ccccc1F)c1cn(-c2cc(N3CCOCC3)ncn2)cn1 | 758
CCOC(=O)c1c(S(=O)(=O)N2CCC(C(=O)Nc3cccc(F)c3)CC2)c(C)n(C)c1C | 862
C=CCNC(=O)CN1C(=O)C2CCCCN2c2ccc(C(=O)N3CCCC3)cc21 (stereo not given) | 838
Cc1noc(C2(NC(=O)C3COc4ccccc4O3)CCCCC2)n1 (stereo not given) | 920
O=C(c1ccc(F)cc1F)N1CCN(c2cc(-c3cccs3)[nH]n2)CC1 | 784
O=C(CC1CCN(C(=O)c2ccc3oc(C4CC4)nc3c2)CC1)NC1CCCC1 | 715

Compound | RP-LC retention time [s]
COc1ccc(NC(=O)N2CCC(c3noc(-c4cccnc4)n3)C2)cc1 (stereo not given) | 690
Cc1ccc(-c2nc(Nc3ccccc3F)sc2C)cc1 | 1340
CCn1c(=O)c2c(cc(C)n2C)n(CC(=O)Nc2ccc(C)c(F)c2)c1=O | 855
CC(C)CN1C(=O)CCc2cc(NS(=O)(=O)c3ccc(Cl)cc3)ccc21 | 946
Cc1ccccc1NS(=O)(=O)c1cc2c(s1)CCN(C(=O)C1CCC1)C2 | 832
CCCN(CC1CCOC1)C(=O)Nc1ccc(C)c(C)c1 (stereo not given) | 869
O=C(CN1C(=O)NC2(CCCCC2)C1=O)Nc1ccc(Cl)cc1F | 809
O=C(CS(=O)(=O)Cc1ccccc1)NCc1ccccc1 | 741
O=C(NC1CCN(c2cc(N3CCOCC3)cnn2)C1)c1ccc(Cl)s1 (stereo not given) | 610
Cn1cc(-c2cc3n(n2)CCC(=O)N3CC(=O)Nc2cccc(F)c2)c2ccccc21 | 829
COCC(=O)NC1CCC12CCN(C(=O)C1CCOCC1)CC2 (stereo not given) | 603
COc1ccc(N2CC(c3nc(-c4ccc(Br)cc4)no3)CC2=O)cc1 (stereo not given) | 1050
CN1C(=O)Cc2cc(S(=O)(=O)NCc3ccc4c(c3)CCN4C(=O)c3ccccc3)ccc21 | 771
CCc1cc(C(=O)NC2CC2)nc2cc(-c3cccs3)nn12 | 1010
CCN(CC)C(=O)c1ccc2c(c1)ncn2CCNC(=O)Nc1ccc(Br)cc1 | 644
Cc1occc1-c1nnc2sc(COc3ccc(F)cc3)nn12 | 939
CCCc1ccc(S(=O)(=O)N2CCC3(CC2)CN(C)CC3c2nnc(CC)o2)cc1 (stereo not given) | 692
Cc1nc(Nc2ccc(F)cn2)sc1C(=O)N1CCc2ccccc2C1 | 872
Cc1nc(N2CCOCC2)c2c(C(=O)Nc3ccc(C)c(C)c3)c(C)oc2n1 | 882
COc1ccc(S(=O)(=O)NC2CCN(C(=O)c3ccnn3C)CC2)cc1 | 658
COc1ccc(-c2nnc(-c3cccnc3NCCCN3CCCC3=O)o2)cc1 | 746
COc1ccc(NC(=O)c2cn(CC3CCCO3)cc3c(=O)n(-c4ccccc4)nc2-3)cc1 (stereo not given) | 937
O=C(NCc1ccco1)c1c(-c2ccccc2)nnc2ccccc12 | 756

Compound | RP-LC retention time [s]
O=C(Nc1ccccc1)C1CCN(C(=O)C2Sc3ccccc3NC2=O)CC1 (stereo not given) | 731
COc1ccc(OC)c(S(=O)(=O)N2CC(=O)N(C3CCCC3)C3(CCCCC3)C2)c1 | 1090
O=C(N[C@@H]1CN(Cc2ccc(C(F)(F)F)cc2)CC[C@@H]1CO)C1CC1 | 614
CN(C)Cc1c(C(=O)NCCOc2ccc(C(=O)NO)cc2)oc2ccccc12 | 628
CCOC(=O)c1cccc(N2C=C(C#N)S(=O)(=O)c3ccc(C)cc32)c1 | 969
Cc1ccc(Nc2c(-c3ccc(C)cc3)nc3ccc(Cl)cn23)cc1 | 890
O=C(Cn1nc(Cc2ccncc2)c2ccccc2c1=O)N1CC=C(c2ccccc2)CC1 | 685
CC1Cc2cc(S(=O)(=O)N3CCN(c4ccccn4)CC3)ccc2N1C(=O)C1CC1 (stereo not given) | 668
O=C(NC1CC1)C1CCCN(C(=O)c2ccccc2)C1 (stereo not given) | 619
O=S(=O)(c1cccc2cccnc12)N1CC[C@@H]2COCCN(Cc3ccccc3)[C@@H]2C1 | 664
CCOC(=O)C1CCN(c2cc3c(cc2NC(=O)c2ccco2)n(C)c(=O)n3C)CC1 | 904
CCOC(=O)c1c(C)[nH]c(C(=O)N2CCC(CC(=O)NCc3cccc(C)c3)CC2)c1C | 820
Cn1ccc(C(=O)Nc2sccc2C(N)=O)n1 | 623
Cc1nn2c(CNC(=O)c3ccccc3)c(-c3ccccc3)nc2s1 | 810
Cc1cccc(OCc2nc(CCN(C)C(=O)Nc3cc(F)ccc3F)no2)c1 | 1000
Cc1ccc2[nH]cc(CCN3CC(C(=O)Nc4cccc(Br)c4)CC3=O)c2c1 (stereo not given) | 911
COc1ccc(-n2ccn3cc(-c4ccc(OC)c(OC)c4)nc3c2=O)cc1Cl | 780
CCOC(=O)c1nc(NCc2ccccc2OC)c2ccccc2n1 | 774
CCOc1ccc(N2CCn3c2nnc(C(=O)NCC2CCCO2)c3=O)cc1 (stereo not given) | 637
CCCn1cnc2ccc(-c3noc(CNC(=O)c4ccccc4)n3)cc21 | 655
Cc1[nH]c2ccccc2c1C(=O)C(=O)N(C)c1ccccc1 | 767
